Converted amounts (≈) assume the structure as drawn.
What was measured:
N. gonorrhoeae [1] = assay: MIC against N. gonorrhoeae clinical isolates, normal and CO2 conditions; assay type: cell-based; conditions: Neisseria gonorrhoeae
Experimental: (§1) These tests were performed in normal culture conditions with standard CO2 levels and in CO2 (5% in incubator) conditions.

N. gonorrhoeae [2] = assay: Post-antibiotic effect (PAE); assay type: cell-based; conditions: after exposure to 10×MIC for 1 hour
ATCC strain 700825 = assay: MICs against ATCC strain 700825; assay type: cell-based, N. gonorrhoeae; conditions: Neisseria gonorrhoeae
Experimental: as §1

N. gonorrhoeae [3] = assay: Multi-step resistance selection; assay type: cell-based; conditions: after 9 passages
Description: Frequency of mutation—multi-step mutation—We investigated N. gonorrhoeae's ability to develop resistance to CAIs using the multi-step resistance selection experiment^58.
N. gonorrhoeae cultures that grew at the highest concentrations of the compound are used as an inoculum for the subsequent culture.

[4] = test system: intracellular N. gonorrhoeae; assay: Intracellular clearance of N. gonorrhoeae in infected endocervical cells (End1/E6E7); assay type: cell-based; conditions: 5×MIC, 24 hours
Description: Intracellular clearance of N. gonorrhoeae—N. gonorrhoeae is known to invade epithelial cells of the genital tract and cross the epithelial barrier into the subepithelial space^59. Previous studies have shown that N. gonorrhoeae can survive inside host cells and pass epithelial cell layers (a key step in causing disseminated infections)^60,61. Therefore, a drug candidate must also be able to kill intracellular N. gonorrhoeae in order to be an effective therapeutic. Also, we were concerned that CAIs have reduced activity in high-CO2 conditions and may not be suitable to treat intracellular infection. Thus, we examined CAIs ability to reduce the burden of intracellular N. gonorrhoeae present in infected endocervical cells^56.

[5] = N. gonorrhoeae 178, Non CO2 environment
[6] = N. gonorrhoeae 178, normal growth environment (with CO2)
[7] = N. gonorrhoeae 181, Non CO2 environment
[8] = N. gonorrhoeae 181, normal growth environment (with CO2)
[9] = N. gonorrhoeae 194, Non CO2 environment
[10] = N. gonorrhoeae 194, normal growth environment (with CO2)

MIC (ATCC strain 700825; ATCC700825, In CO2) [µg/mL]	MIC (ATCC strain 700825; ATCC700825, In air) [µg/mL]	SMILES	MIC (N. gonorrhoeae [1]; [5]) [µg/mL]	MIC (N. gonorrhoeae [1]; [6]) [µg/mL]	MIC (N. gonorrhoeae [1]; [7]) [µg/mL]	MIC (N. gonorrhoeae [1]; [8]) [µg/mL]	MIC (N. gonorrhoeae [1]; [9]) [µg/mL]	MIC (N. gonorrhoeae [1]; [10]) [µg/mL]	PAE (N. gonorrhoeae [2]; Ng 181) [h]	PAE (N. gonorrhoeae [2]; Ng 186) [h]	PAE (N. gonorrhoeae [2]; Ng 194) [h]	PAE (N. gonorrhoeae [2]; Ng 198) [h]	PAE (N. gonorrhoeae [2]; clinical isolates of N. gonorrhoeae) [h]	increase in MIC (N. gonorrhoeae [3]) [fold]	reduction in N. gonorrhoeae inside infected endocervical cells [4] [log10]
–	–	NS(=O)(=O)c1nnc(NC(=O)CC2CCCCC2)s1 [CAI 0029]	1 (≈ 3.29 µM)	32 (≈ 105 µM)	0.5 (≈ 1.64 µM)	> 64	2 (≈ 6.57 µM)	> 64	–	–	–	–	–	–	–
–	–	NS(=O)(=O)c1nnc(NC(=O)CC2CCCC2)s1 [CAI 0021]	2 (≈ 6.89 µM)	64 (≈ 220 µM)	1 (≈ 3.44 µM)	> 64	4 (≈ 13.8 µM)	> 64	–	–	–	–	–	–	–
–	–	CC[C@H]1OC(=O)[C@H](C)[C@@H](O[C@H]2C[C@@](C)(OC)[C@@H](O)[C@H](C)O2)[C@H](C)[C@@H](O[C@@H]2O[C@H](C)C[C@H](N(C)C)[C@H]2O)[C@](C)(O)C[C@@H](C)CN(C)[C@H](C)[C@@H](O)[C@]1(C)O [Azithromycin]	0.25 (≈ 0.334 µM)	1 (≈ 1.34 µM)	> 128	> 128	0.25 (≈ 0.334 µM)	0.5 (≈ 0.668 µM)	8	8	8	8	8	–	–
–	–	NS(=O)(=O)c1nnc(NC(=O)CN2CCCCC2)s1 [CAI 0035]	64 (≈ 210 µM)	> 64	> 64	> 64	64 (≈ 210 µM)	> 64	–	–	–	–	–	–	–
–	–	CN1CCN(CC(=O)Nc2nnc(S(N)(=O)=O)s2)CC1 [CAI 0036]	64 (≈ 200 µM)	> 64	> 64	> 64	> 64	> 64	–	–	–	–	–	–	–
32 (≈ 100 µM)	4 (≈ 12.6 µM)	NS(=O)(=O)c1nnc(NC(=O)CCC2CCCCC2)s1 [CAI 0019]	4 (≈ 12.6 µM)	64 (≈ 201 µM)	1 (≈ 3.14 µM)	64 (≈ 201 µM)	2 (≈ 6.28 µM)	> 64	–	–	–	–	–	–	–
4 (≈ 12.8 µM)	0.5 (≈ 1.6 µM)	NS(=O)(=O)c1nnc(NC(=O)CCc2ccccc2)s1 [CAI 0041]	–	–	–	–	–	–	–	–	–	–	–	–	–
–	–	CCNc1nnc(S(N)(=O)=O)s1 [CAI 0032]	64 (≈ 307 µM)	> 64	> 64	> 64	> 64	> 64	–	–	–	–	–	–	–
–	–	CC(C)C(=O)Nc1nnc(S(N)(=O)=O)s1 [CAI 0011]	16 (≈ 63.9 µM)	32 (≈ 128 µM)	16 (≈ 63.9 µM)	> 64	8 (≈ 32 µM)	64 (≈ 256 µM)	–	–	–	–	–	–	–
–	–	CCN[C@H]1C[C@H](C)S(=O)(=O)c2sc(S(N)(=O)=O)cc21 [Dorzolamide]	32 (≈ 98.6 µM)	> 64	> 64	> 64	> 64	> 64	–	–	–	–	–	–	–
–	–	CCCCCCC(=O)Nc1nnc(S(N)(=O)=O)s1 [CAI 0027]	2 (≈ 6.84 µM)	32 (≈ 109 µM)	2 (≈ 6.84 µM)	64 (≈ 219 µM)	1 (≈ 3.42 µM)	64 (≈ 219 µM)	–	–	–	–	–	–	–
–	–	O=C(O)c1cn(C2CC2)c2cc(N3CCNCC3)c(F)cc2c1=O [Ciprofloxacin]	–	–	–	–	–	–	–	–	–	–	–	300	–
–	–	NS(=O)(=O)c1nnc(NC(=O)C2CC2)s1 [CAI 0020]	2 (≈ 8.06 µM)	64 (≈ 258 µM)	2 (≈ 8.06 µM)	64 (≈ 258 µM)	4 (≈ 16.1 µM)	> 64	–	–	–	–	–	–	–
–	–	CCN[C@H]1CN(CCCOC)S(=O)(=O)c2sc(S(N)(=O)=O)cc21 [Brinzolamide]	> 64	> 64	> 64	> 64	> 64	> 64	–	–	–	–	–	–	–
–	–	CC(C)(C)C(=O)Nc1nnc(S(N)(=O)=O)s1 [CAI 0010]	32 (≈ 121 µM)	32 (≈ 121 µM)	32 (≈ 121 µM)	> 64	32 (≈ 121 µM)	64 (≈ 242 µM)	–	–	–	–	–	–	–
–	–	NS(=O)(=O)c1nnc(NC(=O)c2ccccc2)s1 [CAI 0012]	2 (≈ 7.03 µM)	16 (≈ 56.3 µM)	4 (≈ 14.1 µM)	> 64	2 (≈ 7.03 µM)	64 (≈ 225 µM)	–	–	–	–	–	–	–

MIC (ATCC strain 700825; ATCC700825, In CO2) [µg/mL]	MIC (ATCC strain 700825; ATCC700825, In air) [µg/mL]	SMILES	MIC (N. gonorrhoeae [1]; [5]) [µg/mL]	MIC (N. gonorrhoeae [1]; [6]) [µg/mL]	MIC (N. gonorrhoeae [1]; [7]) [µg/mL]	MIC (N. gonorrhoeae [1]; [8]) [µg/mL]	MIC (N. gonorrhoeae [1]; [9]) [µg/mL]	MIC (N. gonorrhoeae [1]; [10]) [µg/mL]	PAE (N. gonorrhoeae [2]; Ng 181) [h]	PAE (N. gonorrhoeae [2]; Ng 186) [h]	PAE (N. gonorrhoeae [2]; Ng 194) [h]	PAE (N. gonorrhoeae [2]; Ng 198) [h]	PAE (N. gonorrhoeae [2]; clinical isolates of N. gonorrhoeae) [h]	increase in MIC (N. gonorrhoeae [3]) [fold]	reduction in N. gonorrhoeae inside infected endocervical cells [4] [log10]
–	–	CC(C)(C)CC(=O)Nc1nnc(S(N)(=O)=O)s1 [CAI 0028]	8 (≈ 28.7 µM)	32 (≈ 115 µM)	16 (≈ 57.5 µM)	64 (≈ 230 µM)	32 (≈ 115 µM)	64 (≈ 230 µM)	–	–	–	–	–	–	–
–	–	Nc1nnc(S(N)(=O)=O)s1 [CAI 0034]	1 (≈ 5.55 µM)	> 64	4 (≈ 22.2 µM)	> 64	2 (≈ 11.1 µM)	> 64	–	–	–	–	–	–	–
–	–	NS(=O)(=O)c1nnc(NC(=O)CCC2CCCC2)s1 [CAI 0015]	2 (≈ 6.57 µM)	16 (≈ 52.6 µM)	1 (≈ 3.29 µM)	> 64	4 (≈ 13.1 µM)	64 (≈ 210 µM)	–	–	–	–	–	–	–
–	–	CCCC(=O)Nc1nnc(S(N)(=O)=O)s1 [CAI 0013]	–	8 (≈ 32 µM)	8 (≈ 32 µM)	32 (≈ 128 µM)	4 (≈ 16 µM)	8 (≈ 32 µM)	–	–	–	–	–	–	–
–	–	CC(C)CC(=O)Nc1nnc(S(N)(=O)=O)s1 [CAI 0026]	8 (≈ 30.3 µM)	32 (≈ 121 µM)	8 (≈ 30.3 µM)	> 64	4 (≈ 15.1 µM)	> 64	–	–	–	–	–	–	–
–	–	CCC(=O)Nc1nnc(S(N)(=O)=O)s1 [CAI 009]	8 (≈ 33.9 µM)	16 (≈ 67.7 µM)	8 (≈ 33.9 µM)	> 64	16 (≈ 67.7 µM)	64 (≈ 271 µM)	–	–	–	–	–	–	–
–	–	CC(C)=CC(=O)Nc1nnc(S(N)(=O)=O)s1 [CAI 0016]	16 (≈ 61 µM)	64 (≈ 244 µM)	16 (≈ 61 µM)	32 (≈ 122 µM)	32 (≈ 122 µM)	64 (≈ 244 µM)	–	–	–	–	–	–	–
–	–	NS(=O)(=O)c1nnc(NC(=O)CN2CCCC2)s1 [CAI 0037]	> 64	> 64	> 64	> 64	> 64	> 64	–	–	–	–	–	–	–
–	–	NS(=O)(=O)c1nnc(NC(=O)c2cccc(C(F)(F)F)c2)s1 [CAI 0038]	1 (≈ 2.84 µM)	> 64	4 (≈ 11.4 µM)	64 (≈ 182 µM)	2 (≈ 5.68 µM)	> 64	–	–	–	–	–	–	–
–	–	NS(=O)(=O)c1nnc(NC(=O)C2CCCCC2)s1 [CAI 0022]	4 (≈ 13.8 µM)	32 (≈ 110 µM)	2 (≈ 6.89 µM)	64 (≈ 220 µM)	4 (≈ 13.8 µM)	> 64	–	–	–	–	–	–	–
–	–	CC(=O)Nc1ccc(S(N)(=O)=O)cc1 [CAI 0030]	8 (≈ 37.3 µM)	> 64	32 (≈ 149 µM)	> 64	16 (≈ 74.7 µM)	> 64	–	–	–	–	–	–	–
32 (≈ 122 µM)	16 (≈ 61 µM)	NS(=O)(=O)c1nnc(NC(=O)CC2CC2)s1 [CAI 0040]	–	–	–	–	–	–	–	–	–	–	–	–	–
–	–	NS(=O)(=O)c1nnc(NC(=O)C2CCC2)s1 [CAI 0018]	16 (≈ 61 µM)	64 (≈ 244 µM)	16 (≈ 61 µM)	> 64	8 (≈ 30.5 µM)	32 (≈ 122 µM)	–	–	–	–	–	–	–
–	–	NS(=O)(=O)c1nnc(NC(=O)C2CCCC2)s1 [CAI 0023]	8 (≈ 28.9 µM)	32 (≈ 116 µM)	8 (≈ 28.9 µM)	64 (≈ 232 µM)	8 (≈ 28.9 µM)	64 (≈ 232 µM)	–	–	–	–	–	–	–
–	–	CO/N=C(\C(=O)N[C@@H]1C(=O)N2C(C(=O)O)=C(CSc3nc(=O)c(=O)[nH]n3C)CS[C@H]12)c1csc(N)n1 [ceftriaxone]	–	–	–	–	–	–	–	–	–	–	–	–	0.32
128 (≈ 416 µM)	32 (≈ 104 µM)	NS(=O)(=O)c1nnc(NC(=O)CN2CCOCC2)s1 [CAI 0031]	32 (≈ 104 µM)	64 (≈ 208 µM)	> 64	> 64	64 (≈ 208 µM)	> 64	–	–	–	–	–	–	–
